This note sets out measurements from paper PMC9570995, “Design, Synthesis, and Biological Evaluation of Novel Dihydropyridine and Pyridine Analogs as Potent Human Tissue Nonspecific Alkaline Phosphatase Inhibitors with Anticancer Activity: ROS and DNA Damage-Induced Apoptosis” (Molecules, 2022).

Each structure is given as a SMILES string. Read-outs that look alike come from different tables or passages of the source.

Experiment [1] concerns Cervical Cancer (HeLa) Cells. Briefly: MTT cell viability assay, HeLa. The conditions noted are these: for IC50: unit given, read-out: Cervical Cancer (HeLa) Cells IC50 Values ± SEM. The experiment is classed as cell-based. From the text:
(§1) An MTT assay was used to determine the viability of the cells under examination in the desired medium. The mitochondrial dehydrogenase enzyme of the viable cells has a key role in the conversion of the yellow water-soluble substrate 3-(4,5-dimethylthiazol-2-y1)-2,5 diphenyl tetrazolium bromide (MTT) into a dark blue formazan product that is insoluble in water. The anticancer activity of the novel synthetic derivatives (4a–4k) was investigated through an MTT assay, with small modifications following the already published protocols against cancer cell lines (HeLa and MCF-7), using cisplatin as a reference drug. The cytotoxic effect of the tested compounds at 100 µM concentration was determined and represented as the percent growth inhibition compared with the untreated control cells. The first series comprised dihydropyridines analogous from 4a–4f with various substitution patterns on the phenyl ring. […] It is presumed that the 1-naphthyl containing compound 4c was locked in a configuration that is not favorable for an interaction with amino acid residues.
(§2) The anti-proliferative activity of the synthesized compounds was determined in MCF-7 and HeLa cells by an MTT cell viability assay, as described earlier. Briefly, we seeded 1 × 10^4 cells/well in a sterile 96-well culture microtiter plate and incubated them in a 5% CO2 incubator at 37 °C for 24 h. […] After 24 h, the cells were treated with 0.2 mg/mL of MTT reagent for 4 h. We added 10% acidified SDS (sodium dodecyl sulfate) solubilizing solution in propanol (1:1) to solubilize the formazan crystals. After 30 min at 37 °C, the plate was placed on a gyratory shaker to completely dissolve the formazan crystals. The plate was placed on a microplate reader to measure the optical density at 570 nm. The IC50 values were calculated from three independent experiments as previously reported.
For orientation: Formazan colour is commonly taken as a measure of viable cells.

The target in experiment [2] is T1, human tissue nonspecific alkaline phosphatase (h-TNAP) (Homo sapiens, UniProt P05186).
T1 sequence (P05186 18-524): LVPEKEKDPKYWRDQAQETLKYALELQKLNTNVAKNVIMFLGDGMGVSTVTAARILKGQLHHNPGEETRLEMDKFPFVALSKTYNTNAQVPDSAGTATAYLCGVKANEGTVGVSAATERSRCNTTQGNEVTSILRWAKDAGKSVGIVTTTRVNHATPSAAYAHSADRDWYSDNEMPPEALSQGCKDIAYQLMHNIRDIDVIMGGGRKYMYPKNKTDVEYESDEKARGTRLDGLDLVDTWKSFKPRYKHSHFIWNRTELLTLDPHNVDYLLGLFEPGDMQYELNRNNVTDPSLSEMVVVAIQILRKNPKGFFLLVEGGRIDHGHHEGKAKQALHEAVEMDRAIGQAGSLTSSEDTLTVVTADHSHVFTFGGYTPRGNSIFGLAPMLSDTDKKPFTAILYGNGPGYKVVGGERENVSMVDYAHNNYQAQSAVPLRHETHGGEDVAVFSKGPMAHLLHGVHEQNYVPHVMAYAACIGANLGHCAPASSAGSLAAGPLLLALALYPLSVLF
Briefly: Alkaline phosphatase inhibition assay (p-NPP substrate). Type of experiment: biochemical. Particulars: for inhibition at 1000 µM: compounds tested at 1 mM. Here is the method:
The newly synthesized compounds were tested against human tissue nonspecific alkaline phosphatase (h-TNAP). The compounds were initially tested against the h-TNAP enzymes at 1 mM concentration. The assay buffer (pH 9.5) constituted of 50% glycerol, followed by tris-hydrochloride (50.0 mM), MgCl2 (5.0 mM), and ZnCl2 (0.1 mM) in the solution. The enzyme substrate p-nitrophenyl phosphate (p-NPP) and all the required test compounds were diluted to the required concentration by a dilution buffer method. In a 96-well plate, the assay was started by adding 70 µL of assay buffer followed by 10.0 µL of the test compound (from 1 mM), 10.0 µL of the enzyme (0.5 µL/mL) and then subsequently incubating at 37 °C for 10 min. The reaction was initiated with the addition of 10.0 µL of substrate (5.0 mM p-NPP) into each well and incubated for an additional 30 min.
Percent inhibition was calculated by the formula:% Inhibition = [100 − (abs of test comp/abs of control) × 100]

For experiment [3], the system named is Breast Cancer (MCF-7) Cells. Briefly: MTT cell viability assay, MCF-7. The experiment is classed as cell-based. Particulars: for inhibition at 100 µM / IC50: Homo sapiens; for inhibition at 100 µM: MCF7, 100 µM, 24 h; for IC50: MCF7, unit given, read-out: Breast Cancer (MCF-7) Cells IC50 Values ± SEM.
Excerpt: as §1, §2

Setting [4] is: Table 2, read-out: Alkaline Phosphatase (h-TNAP) percent inhibition.
The mark [5] stands for this setting: percent inhibition of h-TNAP, Table 1 and text, read-out: Inhibitory Potential.
The mark [6] stands for this setting: Homo sapiens, HeLa, 100 µM, 24 h.
Setting [7] is: Table 2, unit given in Table 1, read-out: Alkaline Phosphatase (h-TNAP) IC50.
[8] abbreviates: h-TNAP, assay buffer pH 9.5, Table 1 and text, read-out: IC50 + SEM.

For orientation: IC50 means the point on the concentration scale where inhibition reaches its midpoint. On to `N.N.[Cl][Pt][Cl]` [Cisplatin, reference compound], for which the “Cervical Cancer (HeLa) Cells % Inhibition (at 100 µM)” value in experiment [1] (100 µM, 24 h) was determined as 98.32%. Also, the IC50 in experiment [1] was found to be 11.3 ± 0.78 µM.

Consider `CSc1ccc(C2C(C#N)=C(N)N(Cc3ccccc3)C(N)=C2C#N)cc1` [Compound 4a, 2,6-Diamino-1-benzyl-4-(4-(methylthio)phenyl)-1,4-dihydropyridine-3,5-dicarbonitrile], for which the “activity against h-TNAP in words” value in experiment [2] is reported as “least activity”. Moreover, the inhibition at 1000 µM in experiment [2] (setting [4]) worked out at 21.1%; in experiment [2] (setting [5]), 20.9%. Moreover, the “activity against HeLa in words” value in experiment [1] is given as “least potency”. Besides, the inhibition at 100 µM was determined as 7.71% in experiment [1] (setting [6]) and 37.9% in experiment [3]. For the same compound, the “activity against MCF-7 in words” value in experiment [3] is “least potency”.

Turning to `CC(C)c1ccc(C2C(C#N)=C(N)N(Cc3ccccc3)C(N)=C2C#N)cc1` [Compound 4b, 2,6-Diamino-1-benzyl-4-(4-isopropylphenyl)-1,4-dihydropyridine-3,5-dicarbonitrile], in experiment [2], the “activity against h-TNAP in words” value is “least activity”. For the same compound, the inhibition at 1000 µM in experiment [2] (setting [4]) and in experiment [2] (setting [5]) was 28.3% each time. In addition, the “activity against HeLa in words” value in experiment [1] is reported as “least potency”. Further, the values for the inhibition at 100 µM in experiment [1] (setting [6]) and in experiment [3] were 11% and 41.8%, respectively. For the same compound, the “activity against MCF-7 in words” value in experiment [3] is given as “least potency”.

Turning to `N#CC1=C(N)N(Cc2ccccc2)C(N)=C(C#N)C1c1cccc2ccccc12` [Compound 4c, 2,6-Diamino-1-benzyl-4-(naphthalen-1-yl)-1,4-dihydropyridine-3,5-dicarbonitrile], the inhibition at 1000 µM in experiment [2] (setting [4]) and in experiment [2] (setting [5]) was 26.2% throughout. Moreover, the “activity against HeLa in words” value in experiment [1] is “inactive”. Besides, the inhibition at 100 µM in experiment [1] (setting [6]) is 21.3%; in experiment [3] it was 23.1%. Further, in experiment [3], the “activity against MCF-7 in words” value is “inactive”.

`COc1ccc(C2C(C#N)=C(N)N(Cc3ccccc3)C(N)=C2C#N)c(OC)c1OC` [Compound 4e, 2,6-Diamino-1-benzyl-4-(2,3,4-trimethoxyphenyl)-1,4-dihydropyridine-3,5-dicarbonitrile]: the 50% inhibitory concentration (IC50) amounted to 8.8 ± 0.53 µM in experiment [2] (setting [7]); 8.8 ± 0.53 µM in experiment [2] (setting [8]); 69.47 ± 0.07 µM in experiment [1] (Homo sapiens, HeLa). Further, the inhibition at 100 µM in experiment [1] (setting [6]) was found to be 60%; in experiment [3], 5.73%.

On to `COc1c(O)cccc1C1C(C#N)=C(N)N(Cc2ccccc2)C(N)=C1C#N` [Compound 4f, 2,6-Diamino-1-benzyl-4-(3-hydroxy-2-methoxyphenyl)-1,4-dihydropyridine-3,5-dicarbonitrile], for which the IC50 in experiment [2] (setting [7]) is 2.25 ± 0.16 µM; in experiment [2] (setting [8]), 2.25 ± 0.16 µM; in experiment [1] (Homo sapiens, HeLa), 57 ± 7.1 µM; in experiment [3], 77 ± 8.3 µM. Further, the values for the inhibition at 100 µM in experiment [1] (setting [6]) and in experiment [3] were 77.3% and 61.7%, respectively.

For the compound `CCOc1ccc(-c2c(C#N)c(N)nc(NCCc3ccc(S(N)(=O)=O)cc3)c2C#N)cc1` [Compound 4g, 4-(2-((6-Amino-3,5-dicyano-4-(4-ethoxyphenyl)pyridine-2yl)amino)ethyl)benzene sulfonamide], the half-inhibitory concentration (IC50) in experiment [2] (setting [7]) was found to be 0.49 ± 0.025 µM; in experiment [2] (setting [8]) it was 0.49 ± 0.025 µM; in experiment [1] (Homo sapiens, HeLa), 63 ± 4.1 µM; in experiment [3], 98 ± 5.7 µM. In addition, the inhibition at 100 µM in experiment [1] (setting [6]) worked out at 67.1%; in experiment [3] it was 53.3%.

For `CSc1ccc(-c2c(C#N)c(N)nc(NCCc3ccc(S(N)(=O)=O)cc3)c2C#N)cc1` [Compound 4h, 4-(2-((6-Amino-3,5-dicyano-4-(4-(methylthio)phenyl)pyridin-2-yl)amino)ethyl)benzene sulfonamide], the “activity against h-TNAP in words” value in experiment [2] is recorded as “least inhibitory activity”. In addition, the inhibition at 1000 µM in experiment [2] (setting [4]) and in experiment [2] (setting [5]) was 37.6% throughout. The figures for the inhibition at 100 µM in experiment [1] (setting [6]) and in experiment [3] were 38.4% and 57.2%, respectively. Besides, in experiment [3], the IC50 was 109.9 ± 1.07 µM.

As for `CC(C)c1ccc(-c2c(C#N)c(N)nc(NCCc3ccc(S(N)(=O)=O)cc3)c2C#N)cc1` [Compound 4i], the “activity against h-TNAP in words” value in experiment [2] is “least inhibitory activity”. Moreover, the inhibition at 1000 µM in experiment [2] (setting [4]) and in experiment [2] (setting [5]) was 31.7% throughout. The inhibition at 100 µM is 39.3% in experiment [1] (setting [6]) and 34.6% in experiment [3].

Turning to `CCOc1ccc(-c2c(C#N)c(N)nc(NCCCn3ccnc3)c2C#N)cc1` [Compound 4j, 2-((3-(1H-Imidazol-1-yl)propyl)amino)-6-amino-4-(4-ethoxyphenyl)pyridine-3,5-dicarbonitrile], the IC50 in experiment [2] (setting [7]) stood at 1.22 ± 0.12 µM; in experiment [2] (setting [8]) it was 1.22 ± 0.12 µM; in experiment [1] (Homo sapiens, HeLa), 57 ± 1.5 µM; in experiment [3], 54 ± 1.7 µM. Moreover, the inhibition at 100 µM in experiment [1] (setting [6]) turned out to be 77.8%; in experiment [3], 72.4%.

Take `CC(C)c1ccc(-c2c(C#N)c(N)nc(NCCCn3ccnc3)c2C#N)cc1` [Compound 4k, 2-((3-(1H-Imidazol-1-yl)propyl)amino)-6-amino-4-(4-(isopropyle)phenyl)pyridine-3,5-dicarbonitrile]: in experiment [2], the “activity against h-TNAP in words” value is “comparatively inactive”. Also, the inhibition at 1000 µM in experiment [2] (setting [4]) and in experiment [2] (setting [5]) was 36.5% in each case. Moreover, the inhibition at 100 µM in experiment [1] (setting [6]) was determined as 63.8%; in experiment [3], 40.1%. In addition, in experiment [1] (Homo sapiens, HeLa), the half-inhibitory concentration (IC50) amounted to 66 ± 1.97 µM.

For the compound `COc1cccc2c1C(=O)c1c(O)c3c(c(O)c1C2=O)C[C@@](O)(C(=O)CO)C[C@@H]3O[C@H]1C[C@H](N)[C@H](O)[C@H](C)O1` [Doxorubicin, reference compound], in experiment [3], the inhibition at 100 µM is 98.9% and the IC50 is 2.81 ± 0.39 µM.
